The record followed here is ChEMBL document CHEMBL1201862, “PubChem BioAssay data set” (2004).

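96-well plates; 48 h exposure; 5 concentrations. Endpoints by linear interpolation between flanking doses. Not reached: highest tested concentration assigned. GI50 marks 50% less growth.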 The source made the active and inactive calls. Cut-off read from the data, not from the text of the source: active = GI50 up to about 1.1 µM and inactive = higher.

Among the test systems are DU-145; MDA-N; PC-3.
Common to all, as to test: growth of human tumour cells (NCI), 48 h

Regarding `C=C(Br)CN(C)CC(=C)Br`, the GI50 in the experiment on DU-145, in the experiment with MDA-N and in the experiment with PC-3 was > 100 µM (inactive) throughout.
Consider `CN(C)c1ccc(/C=C/c2ccnc3ccc4ccccc4c23)cc1`, for which the results for the GI50 in the experiment with DU-145, in the experiment with MDA-N and with PC-3 were 44.1 µM (inactive), 16.3 µM (inactive) and 92.5 µM (inactive), respectively.
The like results for `Oc1cc(Cl)cc2cc(Br)cnc12` were, in that order, 5.14 µM (inactive), 2.3 µM (inactive) and 2.57 µM (inactive).
Turning to `O=C(Nc1nc2c(=O)[nH]cnc2s1)c1ccccc1`, the GI50 in the experiment with DU-145 was 73.1 µM (inactive); in the experiment on PC-3, > 100 µM (inactive).
As to `Cc1ccc(S(=O)(=O)N(c2ccccc2F)C2CCCCC2O)cc1` (stereo not given), the GI50 in the experiment on DU-145 was 24.9 µM (inactive); in the experiment on MDA-N, 19.9 µM (inactive); in the experiment on PC-3 it was 35.4 µM (inactive).
Regarding `COc1ccc(C2c3cc4c(cc3OC(N3CCOCC3)C2C)OCO4)cc1OC` (stereo not given), the GI50 with DU-145 was 9.42 µM (inactive); in the experiment on MDA-N it was 1.86 µM (inactive); in the experiment on PC-3, 6.43 µM (inactive).
The like results for `CC/C=C/C[C@H](O[Si](C)(C)C(C)(C)C)[C@H]1C[C@H]2O[C@H]([C@@H](O)C#C[Si](C)(C)C)C[C@H]2O1` were, in that order, 14.7 µM (inactive), 12.2 µM (inactive) and 12.9 µM (inactive).
On to `CC1(C)C2CCC1(C)[C@H](O)[C@H]2Nc1cc(C(F)(F)F)cc(C(F)(F)F)c1` (stereo not given in full), for which the GI50 is 3.66 µM (inactive) with DU-145 and 2.47 µM (inactive) in the experiment with PC-3.
With `O=C(NS(=O)(=O)OCC(Cl)(Cl)Cl)SCCC(F)(F)C(F)(F)C(F)(F)C(F)(F)C(F)(F)C(F)(F)F`, the figures for the GI50 with DU-145 and in the experiment with PC-3 were 46.9 µM (inactive) and 16.5 µM (inactive), respectively.
Regarding `CN(C)c1ccc(C2SCC(=O)N2c2nc3cc4sc(N5C(=O)CSC5c5ccc(N(C)C)cc5)nc4cc3s2)cc1` (stereo not given), the GI50 is 13.2 µM (inactive) with DU-145, 45.2 µM (inactive) in the experiment on MDA-N and 38.1 µM (inactive) in the experiment on PC-3.
Take `CC(Cc1ccc2c(c1)OCO2)N(C)C(=O)C1=CCN(C)CC1` (stereo not given): the GI50 in the experiment with DU-145, in the experiment with MDA-N and with PC-3 was > 100 µM (inactive) each time.
On to `O=C(/C=C/c1ccccc1)Oc1cccc(O)c1`, for which the values for the GI50 in the experiment on DU-145, in the experiment with MDA-N and with PC-3 were 80.7 µM (inactive), 57.8 µM (inactive) and > 100 µM (inactive), respectively.
`NC(=O)c1oc([N+](=O)[O-])c(-c2ccccc2)c1-c1ccccc1`: the GI50 with DU-145 is 26.9 µM (inactive); in the experiment on PC-3, 15.5 µM (inactive).
As for `CCC1C(=O)C[C@H]2[C@@H]3C(O)CC4=CC(=O)CC[C@]4(C)[C@H]3CC[C@]12C` (stereo not given in full), the GI50 in the experiment with DU-145 and in the experiment with PC-3 was > 50 µM (inactive) throughout.
Take `Nc1nc(Cl)cc(NCC2(CO)CCC(OCc3ccccc3)C2)n1` (stereo not given): the results for the GI50 in the experiment on DU-145, with MDA-N and in the experiment with PC-3 were 27.7 µM (inactive), 16.8 µM (inactive) and 8.24 µM (inactive), respectively.
The like results for `Cc1nc2ccccc2cc1C[N+]12CN3CN(CN(C3)C1)C2` were, in that order, 26.2 µM (inactive), 21.8 µM (inactive) and 10.8 µM (inactive).
For `C=C(C)COc1ccc2c(c1)CCC1C2CCC2(C)C(=O)/C(=N/O)CC12` (stereo not given) the same measures were 2.12 µM (inactive), 3.47 µM (inactive) and 2.6 µM (inactive).
`O=C1NC(=O)C(CC2CCCCCCCCCCC2=O)C(=O)N1` (stereo not given): the GI50 in the experiment on DU-145, in the experiment with MDA-N and in the experiment with PC-3 was > 100 µM (inactive) each time.
Consider `COc1ccc(-c2oc3cc(-c4cc5oc(-c6ccc(OC)cc6)c(-c6ccc(OC)cc6)c5cc4OC)c(OC)cc3c2-c2ccc(OC)cc2)cc1`, for which the GI50 in the experiment on DU-145, with MDA-N and in the experiment with PC-3 was > 100 µM (inactive) each time.
As for `O=S(=O)(N/C(=N\O)Nc1ccc(Cl)cc1)c1cc2ccccc2s1`, the values for the GI50 with DU-145, with MDA-N and in the experiment with PC-3 were 20.9 µM (inactive), 20.9 µM (inactive) and 14.5 µM (inactive), respectively.
